Assay results from PubChem BioAssay AID330 (DTP/NCI, 2004).
Where “and” joins values, the source holds several entries; their conditions need not be identical. Equal entries are not always repeated. Toxic doses and inconclusive results are not listed.

Tested on: P388 leukemia ip, CD2F1 mice, survival T/C
Assay: NCI In Vivo Anticancer Drug Screen. Data for tumor model P388 Leukemia (intraperitoneal) in CD2F1 (CDF1) mice
Settings: endpoint: median survival time, higher = longer survival
Summary of the method: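 Mice carrying the transplanted tumor received test compound or vehicle. Survival was recorded in each group, and the value is the treated-group measurement divided by that of the vehicle-treated control group.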

[1] = dose: 60.0 mg/kg/injection, schedule: Q01DX005 (ip), vehicle: saline
[2] = dose: 120.0 mg/kg/injection, schedule: Q01DX005 (ip), vehicle: saline
[3] = dose: 240.0 mg/kg/injection, schedule: Q01DX005 (ip), vehicle: saline
[4] = dose: 100.0 mg/kg/injection, schedule: Q01DX001 (ip), vehicle: saline with Tween-80
[5] = dose: 200.0 mg/kg/injection, schedule: Q01DX001 (ip), vehicle: saline with Tween-80
[6] = dose: 400.0 mg/kg/injection, schedule: Q01DX001 (ip), vehicle: saline with Tween-80
[7] = dose: 50.0 mg/kg/injection, schedule: Q01DX005 (ip), vehicle: Klucel (hydroxypropylcellulose) (HPC)
[8] = dose: 100.0 mg/kg/injection, schedule: Q01DX005 (ip), vehicle: Klucel (hydroxypropylcellulose) (HPC)
[9] = dose: 200.0 mg/kg/injection, schedule: Q01DX005 (ip), vehicle: Klucel (hydroxypropylcellulose) (HPC)
[10] = dose: 100.0 mg/kg/injection, schedule: Q01DX009 (ip), vehicle: saline with Tween-80
[11] = dose: 200.0 mg/kg/injection, schedule: Q01DX009 (ip), vehicle: saline with Tween-80
[12] = dose: 50.0 mg/kg/injection, schedule: Q01DX005 (ip), vehicle: saline with Tween-80
[13] = dose: 100.0 mg/kg/injection, schedule: Q01DX005 (ip), vehicle: saline with Tween-80
[14] = dose: 200.0 mg/kg/injection, schedule: Q01DX005 (ip), vehicle: saline with Tween-80
[15] = dose: 100.0 mg/kg/injection, schedule: Q04DX003 (ip), vehicle: saline with Tween-80
[16] = dose: 400.0 mg/kg/injection, schedule: Q04DX003 (ip), vehicle: saline with Tween-80
[17] = dose: 15.0 mg/kg/injection, schedule: Q01DX005 (ip), vehicle: saline with Tween-80
[18] = dose: 30.0 mg/kg/injection, schedule: Q01DX005 (ip), vehicle: saline with Tween-80
[19] = dose: 60.0 mg/kg/injection, schedule: Q01DX005 (ip), vehicle: saline with Tween-80
[20] = dose: 50.0 mg/kg/injection, schedule: Q01DX009 (ip), vehicle: saline
[21] = dose: 100.0 mg/kg/injection, schedule: Q01DX009 (ip), vehicle: saline
[22] = dose: 200.0 mg/kg/injection, schedule: Q01DX009 (ip), vehicle: saline

## COc1ccc(C2C3C(=O)NC(=O)C2C(=O)NC3=O)cc1OC (configuration not stated)
[1]
  T/C: 101 % of control
[2]
  T/C: 108 % of control
[3]
  T/C: 90 % of control

## Cc1cccc(CSCc2c(CSCc3cccc(C)c3)c(CSCc3cccc(C)c3)c(CSCc3cccc(C)c3)c(CSCc3cccc(C)c3)c2CSCc2cccc(C)c2)c1
[4]
  T/C: 114 % of control
[5]
  T/C: 105 % of control
[6]
  T/C: 101 % of control

## S=c1oc(-c2ccc3c(c2)OCO3)nn1CN1CCN(Cn2nc(-c3ccc4c(c3)OCO4)oc2=S)CC1
[7]
  T/C: 96 % of control
[8]
  T/C: 96 % of control
[9]
  T/C: 93 % of control

## N#Cc1c(-c2ccc(Br)cc2)c(-c2ccc(Br)cc2)n[nH]c1=O
[4]
  T/C: 91 % of control
[5]
  T/C: 95 % of control
[6]
  T/C: 95 % of control

## Nc1ccn(C2CC(N)C(CO)O2)c(=O)n1 (configuration not stated)
dose: 12.5 mg/kg/injection, schedule: Q01DX005 (ip), vehicle: water
  T/C: 120 % of control
dose: 25.0 mg/kg/injection, schedule: Q01DX005 (ip), vehicle: water
  T/C: 118 % of control and 123 % of control
dose: 200.0 mg/kg/injection, schedule: Q01DX005 (ip), vehicle: water
  T/C: 153 % of control and 154 % of control

## CC(NC(=O)c1cccc2c1Oc1ccccc1S2)C(=O)O (configuration not stated)
dose: 50.0 mg/kg/injection, schedule: Q04DX002 (ip), vehicle: saline
  T/C: 104 % of control
dose: 100.0 mg/kg/injection, schedule: Q04DX002 (ip), vehicle: saline
  T/C: 98 % of control
dose: 200.0 mg/kg/injection, schedule: Q04DX002 (ip), vehicle: saline with Tween-80
  T/C: 93 % of control
dose: 200.0 mg/kg/injection, schedule: Q04DX002 (ip), vehicle: saline
  T/C: 99 % of control

## CC(C)c1nc(-c2ccccc2)c(-c2ccccc2)[nH]1
[10]
  T/C: 90 % of control
[11]
  T/C: 90 % of control
dose: 400.0 mg/kg/injection, schedule: Q01DX009 (ip), vehicle: saline with Tween-80
  T/C: 95 % of control

## [N-]=[N+]=C1N=Nc2ccccc21
dose: 0.78 mg/kg/injection, schedule: Q01DX005 (ip), vehicle: Klucel (hydroxypropylcellulose) (HPC)
  T/C: 99 % of control
dose: 1.56 mg/kg/injection, schedule: Q01DX005 (ip), vehicle: Klucel (hydroxypropylcellulose) (HPC)
  T/C: 107 % of control
dose: 3.12 mg/kg/injection, schedule: Q01DX005 (ip), vehicle: Klucel (hydroxypropylcellulose) (HPC)
  T/C: 107 % of control

## Cn1cc(Cl)c2ccccc2c1=O
[12]
  T/C: 101 % of control
[13]
  T/C: 99 % of control
[14]
  T/C: 100 % of control

## CCOC(=O)C(SC#N)[Se]c1ccccc1 (configuration not stated)
[12]
  T/C: 106 % of control
[13]
  T/C: 109 % of control

## O=C(O)CCC(NC(=O)c1ccc(N(CCCO)CC2CNc3nc(NCCCO)[nH]c(=O)c3N2CCCO)cc1)C(=O)O (configuration not stated)
dose: 50.0 mg/kg/injection, schedule: Q04DX003 (ip), vehicle: alkali diluted with saline
  T/C: 98 % of control
dose: 100.0 mg/kg/injection, schedule: Q04DX003 (ip), vehicle: alkali diluted with saline
  T/C: 109 % of control
dose: 200.0 mg/kg/injection, schedule: Q04DX003 (ip), vehicle: alkali diluted with saline
  T/C: 98 % of control

## CC(=O)Nc1ccccc1NOC(=O)c1ccccc1NC(C)=O
[7]
  T/C: 91 % of control
[8]
  T/C: 87 % of control
[9]
  T/C: 91 % of control

## CCOC(=O)N1C(=O)c2ccccc2C1=O
dose: 25.0 mg/kg/injection, schedule: Q01DX009 (ip), vehicle: saline with Tween-80
  T/C: 110 % of control
dose: 25.0 mg/kg/injection, schedule: Q04DX003 (ip), vehicle: saline with Tween-80
  T/C: 115 % of control
dose: 50.0 mg/kg/injection, schedule: Q01DX009 (ip), vehicle: saline with Tween-80
  T/C: 105 % of control
dose: 50.0 mg/kg/injection, schedule: Q04DX003 (ip), vehicle: saline with Tween-80
  T/C: 110 % of control
[10]
  T/C: 100 % of control
[15]
  T/C: 120 % of control

## CCCCCCCCCC(C)(O)C#CC(C)(O)CCCCCCCCC (configuration not stated)
[10]
  T/C: 87 % of control
[11]
  T/C: 95 % of control
[16]
  T/C: 86 % of control

## CCN=Cc1c(O)c(O)c(C(C)C)c2cc(C)c(-c3c(C)cc4c(C(C)C)c(O)c(O)c(C=NCC)c4c3O)c(O)c12
[12]
  T/C: 86 % of control
[13]
  T/C: 86 % of control
[14]
  T/C: 104 % of control

## CCOC(=O)N(C)N=NCCCl
dose: 7.5 mg/kg/injection, schedule: Q01DX005 (ip), vehicle: saline with Tween-80
  T/C: 117 % of control
[17]
  T/C: 118 % of control
[18]
  T/C: 175 % of control
[19]
  T/C: 94 % of control

## CN1C(=O)n2c(nc3ccccc32)C(N=[N+]=[N-])(N=[N+]=[N-])C1=O (configuration not stated)
[17]
  T/C: 108 % of control
[18]
  T/C: 101 % of control
[19]
  T/C: 101 % of control and 110 % of control

## CNC1C(O)C2Oc3c(cc(O)c4c3C(=O)c3cc5c(c(O)c3C4=O)C(OC3OC(C)C(OC)C(C)(OC)C3OC)CC(C)(O)C5)C(C)(O2)C1O (configuration not stated)
dose: 2.06 mg/kg/injection, schedule: Q04DX003 (ip), vehicle: other
  T/C: 97 % of control
dose: 4.12 mg/kg/injection, schedule: Q04DX003 (ip), vehicle: other
  T/C: 102 % of control
dose: 8.25 mg/kg/injection, schedule: Q04DX003 (ip), vehicle: other
  T/C: 103 % of control
dose: 16.5 mg/kg/injection, schedule: Q04DX003 (ip), vehicle: other
  T/C: 124 % of control
dose: 33.0 mg/kg/injection, schedule: Q04DX003 (ip), vehicle: other
  T/C: 124 % of control

## COc1cc(C2C(C)=COc3cc4c(cc32)OCO4)cc(OC)c1OC (configuration not stated)
[19]
  T/C: 93 % of control
dose: 120.0 mg/kg/injection, schedule: Q01DX005 (ip), vehicle: saline with Tween-80
  T/C: 100 % of control
dose: 240.0 mg/kg/injection, schedule: Q01DX005 (ip), vehicle: saline with Tween-80
  T/C: 93 % of control

## COC(=O)C12CC3CC(CC(NC(=O)C(Cc4ccccc4)NC(=O)CN)(C3)C1)C2 (configuration not stated)
[1]
  T/C: 94 % of control
[2]
  T/C: 99 % of control
[3]
  T/C: 94 % of control

## CC(/C=N\Nc1ccc(C(=O)O)cc1)=N/N=C(N)N
dose: 100.0 mg/kg/injection, schedule: Q04DX003 (ip), vehicle: saline
  T/C: 99 % of control
dose: 200.0 mg/kg/injection, schedule: Q04DX003 (ip), vehicle: saline
  T/C: 98 % of control
dose: 400.0 mg/kg/injection, schedule: Q04DX003 (ip), vehicle: saline
  T/C: 100 % of control

## ClC1=C(Cl)C2(Cl)C3C(c4cc(Br)c(Br)cc4C4C3C3(Cl)C(Cl)=C(Cl)C4(Cl)C3(Cl)Cl)C1(Cl)C2(Cl)Cl (configuration not stated)
[20]
  T/C: 101 % of control
[21]
  T/C: 106 % of control
[22]
  T/C: 102 % of control

## CC(=O)CC(=O)Nc1cc(Cl)c(NC(=O)CC(C)=O)cc1Cl
[15]
  T/C: 100 % of control
dose: 200.0 mg/kg/injection, schedule: Q04DX003 (ip), vehicle: saline with Tween-80
  T/C: 104 % of control
[16]
  T/C: 95 % of control

## COC(=O)c1ccc(SCCC(=O)CSc2ccc(C(=O)OC)cc2)cc1
dose: 50.0 mg/kg/injection, schedule: Q01DX009 (ip), vehicle: Klucel (hydroxypropylcellulose) (HPC)
  T/C: 98 % of control
dose: 100.0 mg/kg/injection, schedule: Q01DX009 (ip), vehicle: Klucel (hydroxypropylcellulose) (HPC)
  T/C: 94 % of control
dose: 200.0 mg/kg/injection, schedule: Q01DX009 (ip), vehicle: Klucel (hydroxypropylcellulose) (HPC)
  T/C: 94 % of control

## CC(C)N1C(=O)c2ccccc2S1(Cl)c1ccccc1 (configuration not stated)
dose: 100.0 mg/kg/injection, schedule: Q04DX003 (ip), vehicle: Klucel (hydroxypropylcellulose) (HPC)
  T/C: 101 % of control
dose: 200.0 mg/kg/injection, schedule: Q04DX003 (ip), vehicle: Klucel (hydroxypropylcellulose) (HPC)
  T/C: 98 % of control
dose: 400.0 mg/kg/injection, schedule: Q04DX003 (ip), vehicle: Klucel (hydroxypropylcellulose) (HPC)
  T/C: 98 % of control

## CCOc1ccccc1NC(=O)CC(=O)N1N=C(c2ccccc2)C(N=Nc2ccc(S(N)(=O)=O)cc2)C1=O (configuration not stated)
[12]
  T/C: 110 % of control
[13]
  T/C: 102 % of control
[14]
  T/C: 102 % of control

## COc1ccc(/C=C/c2ccnnc2)cc1
[20]
  T/C: 99 % of control and 102 % of control
[21]
  T/C: 108 % of control
[22]
  T/C: 99 % of control and 94 % of control
